# What was measured:
# RPE cells = assay: RPE cell morphology after 10 days in retinoid; assay type: cell-based, human; details: 1 μm, 5% serum, on plastic
# [1] = test system: rabbit cell injection model of PVR; assay: Rabbit cell injection model of PVR (RPE cells), intravitreous injection of retinoids; assay type: in vivo; details: for Any RD (%) / Total RD (%): 28 Days
# Description: Briefly, pigmented rabbits were anesthetized with a subcutaneous injection of 5 mg/kg of xylazine and 25 mg/kg of ketamine, and the pupil of one eye was dilated with 2½% phenylephrine. Under direct observation 5×10^5 RPE cells were injected into the vitreous cavity just anterior to the optic nerve. […] .
# Rabbits were examined by indirect ophthalmoscopy on days 7, 14 and 28 and traction retinal detachments were graded. […] . The localized clouds decreased in size and cleared over 2 to 3 weeks. There were no visible changes in the retina. […] .
# It was felt that the hair loss and possibly the loss of appetite and death were due to systemic toxicity from drug that had gotten out of the eye. […] . None of the rabbits experienced hair loss and none died; their appetites appeared to be normal.
# retinas of the rabbits = assay: Ocular toxicity after single intravitreous injection, histopathology of retina; assay type: in vivo, rabbit; details: single intravitreous injection of 100 μg, two weeks after injection
# Text: The rabbits were killed two weeks after injection.
# human RPE cells = assay: [3H]thymidine incorporation / proliferation of cultured human RPE cells; details: for effect on RPE cell proliferation, agent alone: FIG. 3, alone
# Description: Primary cultures of human retinal pigment epithelium (RPE) cells were established from eyes obtained from the Old Dominion Eye Bank (Richmond, Va.) or the Eye Bank of Maryland (Baltimore, Md.) using the technique described in P. A. Campochiaro, et al., Invest.
# For [3H]thymidine incorporation, RPE cells at passage 3 or 4 were lightly trypsinized and plated in 16-mm wells of 24-well plates. The transfected cells were allowed to attach overnight and then the media containing 5% fetal bovine serum (FBS) were supplemented with retinoids or vehicle alone. Stock solutions (10^−3M) of retinoids were prepared in dimethylsulfoxide (DMSO) and stored as frozen aliquots until used; the highest final concentration of DMSO was 0.1% and was also used for control cultures. The media containing freshly prepared retinoids were changed every three days. At 7 or 10 days 2 μCi/ml of [^3H]thymidine (specific activity, 6.7 Ci/mM; New England Nuclear, Boston, Mass.) was added to the cultures and incorporation was measured as previously described (Leschey, supra).
# The potency of retinoid agonists for inhibition of serum stimulated DNA synthesis in human RPE cells was tested. […] The cells were shifted to serum-free media containing the same concentration of retinoid and then pulsed with 10% serum for 18 hours, after which [^3H]thymidine incorporation was measured. Thymidine incorporation for cells grown in control medium was used to calculate the percent inhibition of thymidine incorporation induced by four concentrations of each retinoid (each concentration tested in triplicate) which were then used to generate each line.
# RXRα = target: T1, RXRα (Homo sapiens, UniProt P19793); assay: Transactivation, ER/RXR-α hybrid receptor + ERE-CAT reporter cotransfected in HeLa cells
# T1 sequence (P19793 227-458 limits assumed): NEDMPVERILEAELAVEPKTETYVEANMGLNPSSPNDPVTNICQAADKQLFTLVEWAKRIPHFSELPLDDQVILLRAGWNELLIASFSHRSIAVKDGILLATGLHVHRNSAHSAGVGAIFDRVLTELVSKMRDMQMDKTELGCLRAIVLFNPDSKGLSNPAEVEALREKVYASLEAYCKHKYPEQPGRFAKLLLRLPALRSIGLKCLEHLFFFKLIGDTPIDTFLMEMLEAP
# [2] = test system: traction retinal detachment in rabbits; assay: Traction retinal detachment in rabbits after human RPE cells, intravitreal injection of 168 and 299; assay type: in vivo, rabbit
# [3] = test system: traction retinal detachment in rabbits; assay: Traction retinal detachment in rabbits after human RPE cells, subconjunctival injection; assay type: in vivo, rabbit; details: subconjunctival 0.3 mg once a day for five days
# Text: Due to the toxicity of certain RAR agonists and because the effects of retinoids are delayed in onset and reversible, methods for sustained release of the retinoids were investigated. […] The therapeutic effect of the RAR specific agonists was greater than that of RA, which is an agonist for both RXRs and RARs. There were no signs of any toxicity to the retina.
# [4] = test system: traction retinal detachment in rabbits; assay: Traction retinal detachment in rabbits after human dermal fibroblasts, subconjunctival lipid microvesicles; assay type: in vivo, rabbit; details: for % Any RD / % Total RD / RD at 7 Days, Partial / RD at 7 Days, Total / RD at 14 Days, Partial / RD at 14 Days, Total / RD at 28 Days, Partial / RD at 28 Days, Total: human dermal fibroblasts
# [5] = test system: traction retinal detachment in rabbits; assay: Traction retinal detachment in rabbits after human dermal fibroblasts, subconjunctival injection
# [6] = test system: traction retinal detachment in rabbits; assay: Traction retinal detachment in rabbits after human dermal fibroblasts, intravitreous lipid microvesicles; details: for % Any RD / % Total RD / RD at 7 Days, Partial / RD at 7 Days, Total / RD at 14 Days, Partial / RD at 14 Days, Total / RD at 28 Days, Partial / RD at 28 Days, Total: human dermal fibroblasts
# Description: In this experiment the retinoid was incorporated into lipid microvesicles utilizing standard techniques.
# [7] = 50 μg, single intravitreous injection
# [8] = 100 μg intravitreous, two injections (day 1 and day 2 after cell injection)
# [9] = 100 μg intravitreous, two injections
# [10] = Homo sapiens, RPE, read-out: Percent Inhibition of [3H]thymidine incorporation in RPE cells
smiles,measurement,setting,value
"C/C(=C\c1ccc(C(=O)O)cc1)c1ccc2c(c1)C(C)(C)CCC2(C)C [Compound 183, p-[(E)-2-(5,6,7,8-tetrahydro-5,5,8,8-tetramethyl-2-naphthyl)propenyl]-benzoic acid]",RPE cell morphology / cell overgrowth,RPE cells,prevented cell overgrowth
same,Partial RD at 14 Days (number of eyes),[1]; [7],1
same,Partial RD at 28 Days (number of eyes),[1]; [7],1
same,Total RD at 14 Days (number of eyes),[1]; [7],2
same,Total RD at 28 Days (number of eyes),[1]; [7],2
same,Any RD (%),[1]; [7],33+ %
same,Total RD (%),[1]; [7],22%
same,Partial RD at 14 Days (number of eyes),[1]; [8],0
same,Partial RD at 28 Days (number of eyes),[1]; [8],0
same,Total RD at 14 Days (number of eyes),[1]; [8],0
same,Total RD at 28 Days (number of eyes),[1]; [8],0
same,Any RD (%),[1]; [9],0++ %
same,Total RD (%),[1]; [9],0%
same,frequency and severity of traction retinal detachments versus vehicle,"[1]; initial group, intravitreous injections of 100 μg",None of these rabbits developed retinal detachments
same,frequency and severity of retinal detachments versus control,[1]; single intravitreous injection one day after RPE cell injection,fewer (p(0.05) and less severe retinal detachments
same,deaths before completion of the 28 day observation period,"[1]; two intravitreous injections of 100 μg, five rabbits",two rabbits died
same,"photoreceptor degeneration, histopathology",retinas of the rabbits,Occasional focal areas of photoreceptor degeneration were seen in one eye
same,inhibition at 0.05 µM,human RPE cells; [10],76.7%
same,inhibition at 0.1 µM,human RPE cells; [10],98.6%
same,inhibition at 1 µM,human RPE cells; [10],98.8%
same,inhibition of RPE cell proliferation,human RPE cells; comment on Table 3,effective inhibitors of RPE cell proliferation
same,EC50,RXRα,15 µM
"C=C1/C(=C\C=C2/CCC[C@]3(C)[C@@H]([C@H](C)CCCC(C)(C)O)CC[C@@H]23)C[C@@H](O)C[C@@H]1O [Compound D3, 1,25-dihydroxyvitamin D3, reference compound]","effect on RPE cell proliferation, agent alone",human RPE cells,did not
"CC1(C)CCOc2ccc(C#Cc3ccc(C(=O)O)cn3)cc21 [Compound 299, 6-[2-(4,4-dimethylchroman-6-yl)ethynyl]nicotinic acid]",% Any RD,[2],80%
same,% Total RD,[2],40%
same,"RD at 7 Days, Partial",[2],0
same,"RD at 7 Days, Total",[2],0
same,"RD at 14 Days, Partial",[2],1
same,"RD at 14 Days, Total",[2],1
same,"RD at 28 Days, Partial",[2],4
same,"RD at 28 Days, Total",[2],4
same,% Any RD,[3],0%
same,% Total RD,[3],0%
same,"RD at 7 Days, Partial",[3],0
same,"RD at 7 Days, Total",[3],0
same,"RD at 14 Days, Partial",[3],0
same,"RD at 14 Days, Total",[3],0
same,"RD at 28 Days, Partial",[3],0
same,"RD at 28 Days, Total",[3],0
same,% Any RD,[4],63%
same,% Total RD,[4],50%
same,"RD at 7 Days, Partial",[4],0
same,"RD at 7 Days, Total",[4],0
same,"RD at 14 Days, Partial",[4],0
same,"RD at 14 Days, Total",[4],1
same,"RD at 28 Days, Partial",[4],1
same,"RD at 28 Days, Total",[4],4
same,% Any RD,[5],40%
same,% Total RD,[5],0%
same,"RD at 7 Days, Partial",[5],0
same,"RD at 7 Days, Total",[5],0
same,"RD at 14 Days, Partial",[5],0
same,"RD at 14 Days, Total",[5],0
same,"RD at 28 Days, Partial",[5],4
same,"RD at 28 Days, Total",[5],0
same,effect on retinal detachments,[5],decreased the number of retinal detachments and slowed the rate at which they developed
same,prevention of traction retinal detachment,[6],not effective
same,% Any RD,[6],100%
same,% Total RD,[6],100%
same,"RD at 7 Days, Partial",[6],0
same,"RD at 7 Days, Total",[6],0
same,"RD at 14 Days, Partial",[6],0
same,"RD at 14 Days, Total",[6],0
same,"RD at 28 Days, Partial",[6],0
same,"RD at 28 Days, Total",[6],3
"CCOC(=O)c1ccc(C#Cc2ccc3c(c2)C(C)(C)CCS3)nc1 [Compound 168, ethyl 6-[2-(4,4-dimethylthiochroman-6-yl)ethynyl]nicotinate]",% Any RD,[2],80%
same,% Total RD,[2],8%
same,"RD at 7 Days, Partial",[2],1
same,"RD at 7 Days, Total",[2],0
same,"RD at 14 Days, Partial",[2],1
same,"RD at 14 Days, Total",[2],0
same,"RD at 28 Days, Partial",[2],7
same,"RD at 28 Days, Total",[2],1
same,% Any RD,[3],16%
same,% Total RD,[3],16%
same,"RD at 7 Days, Partial",[3],0
same,"RD at 7 Days, Total",[3],0
same,"RD at 14 Days, Partial",[3],0
same,"RD at 14 Days, Total",[3],0
same,"RD at 28 Days, Partial",[3],1
same,"RD at 28 Days, Total",[3],0
same,inhibition of tractional retinal detachment,[4],substantially more effective at inhibiting tractional retinal detachment
same,% Any RD,[4],33%
same,% Total RD,[4],33%
same,"RD at 7 Days, Partial",[4],0
same,"RD at 7 Days, Total",[4],0
same,"RD at 14 Days, Partial",[4],1
same,"RD at 14 Days, Total",[4],0
same,"RD at 28 Days, Partial",[4],0
same,"RD at 28 Days, Total",[4],2
same,% Any RD,[5],60%
same,% Total RD,[5],20%
same,"RD at 7 Days, Partial",[5],0
same,"RD at 7 Days, Total",[5],0
same,"RD at 14 Days, Partial",[5],0
same,"RD at 14 Days, Total",[5],0
same,"RD at 28 Days, Partial",[5],4
same,"RD at 28 Days, Total",[5],2
same,effect on retinal detachments,[5],decreased the number of retinal detachments and slowed the rate at which they developed
same,prevention of traction retinal detachment,[6],very effective in preventing traction retinal detachment
same,% Any RD,[6],29%
same,% Total RD,[6],29%
same,"RD at 7 Days, Partial",[6],0
same,"RD at 7 Days, Total",[6],0
same,"RD at 14 Days, Partial",[6],0
same,"RD at 14 Days, Total",[6],0
same,"RD at 28 Days, Partial",[6],0
same,"RD at 28 Days, Total",[6],2
"CC1=C(/C=C/C(C)=C/C=C/C(C)=C\C(=O)O)C(C)(C)CCC1 [13-cis RA, 13-cis-retinoic acid, reference compound]",IC50,"human RPE cells; read-out: RPE 148 IC50 (50% inhibition of RPE cell growth relative to mock treated RPE cells), measured as in Example 2",0.03 µM
"N[C@@H](Cc1cc(I)c(Oc2ccc(O)c(I)c2)c(I)c1)C(=O)O [Compound T3, reference compound]","effect on RPE cell proliferation, agent alone",human RPE cells,did not

# — patent US6573271B2, “Method of preventing proliferation of retinal pigment epithelium by retinoic acid receptor agonists” (John Hopkins University School of Medicine, priority 1995, dated 2003)
